Laboratory results published in patent US12495798B2, “Nicotinamide compound and herbicidal composition comprising compound” (KOREA RESEARCH INSTITUTE OF CHEMICAL TECHNOLOGY, priority 2019, dated 2025).

What was measured:
[1] = test system: black nightshade; assay: Herbicidal activity test against upland field weeds (soil treatment test); type: in vivo; set-up: key to Soil treatment herbicidal activity, black nightshade: 0 (no control); 100 (complete control); conditions: scale 0 (no control) to 100 (complete control); for pest or weed control at 50 g/ha: Solanum nigrum
In short: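 Pre-emergence test: seeds or rootstocks were sown in fertilized sandy loam, and the next day the soil surface was sprayed with compound at 50 or 75 g a.i./ha in 50% acetone/0.1% Tween-20. Plants were grown in a greenhouse (30±5 °C, 14/10 h light/dark), then visually scored 0–100 against untreated at 14 d (21 d if needed).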

[2] = test system: black nightshade; assay: Herbicidal activity test against upland field weeds (foliar treatment test); type: in vivo; set-up: key to Foliar treatment herbicidal activity, black nightshade: 0 (no control); 100 (complete control); conditions: scale 0-100
In short: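 Weeds were raised from seed or rootstocks in horticultural soil in a greenhouse (30±5° C., 14/10 h light/dark), then foliage was hand-sprayed with compound at 50 or 75 g a.i./ha in 50% acetone with 0.1% Tween-20. Control was scored visually 0–100 against untreated plants after 14 days, or 21 if needed.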

SMILES	Soil treatment herbicidal activity, black nightshade ([1]; 50 g ai/ha)	Foliar treatment herbicidal activity, black nightshade ([2]; 50 g ai/ha)	Soil treatment herbicidal activity, black nightshade ([1]; 75 g ai/ha)	Foliar treatment herbicidal activity, black nightshade ([2]; 75 g ai/ha)	pest or weed control at 50 g/ha ([1]; 50 g ai/ha) [%]
Cn1cnc(COCc2nc(C(F)F)ccc2C(=O)Nc2nnnn2C)n1 [Compound No. 2-85]	93	100	–	–	–
CN(Cc1nnn(C)n1)c1nc(C(F)(F)F)ccc1C(=O)Nc1nnnn1C [Compound No. 2-26, 2-(methyl((2-methyl-2H-tetrazol-5-yl)methyl)amino)-N-(1-methyl-1H-tetrazol-5-yl)-6-(trifluoromethyl)nicotinamide]	–	–	100	100	–
Cn1ncnc1COc1nc(C(F)(F)F)ccc1C(=O)Nc1nnnn1C [Compound No. 1-45, 2-((1-methyl-1H-1,2,4-triazol-5-yl)methoxy)-N-(1-methyl-1H-tetrazol-5-yl)-6-(trifluoromethyl)nicotinamide]	100	100	–	–	–
Cn1nnc(CSCc2nc(C(F)(F)F)ccc2C(=O)N(C(=O)c2ccccc2)c2nnnn2C)n1 [Compound No. 2-109, N-benzoyl-N-(1-methyl-1H-tetrazol-5-yl)-2-((((2-methyl-2H-tetrazol-5-yl)methyl)thio)methyl)-6-(trifluoromethyl)nicotinamide]	100	100	–	–	–
CON(Cc1nnn(C)n1)c1nc(C(F)(F)F)ccc1C(=O)Nc1nnnn1C [Compound No. 2-30, 2-(methoxy((2-methyl-2H-tetrazol-5-yl)methyl)amino)-N-(1-methyl-1H-tetrazol-5-yl)-6-(trifluoromethyl)nicotinamide]	100	100	–	–	–
Cn1nnc(CS(=O)(=O)Cc2nc(C(F)(F)F)ccc2C(=O)Nc2nnnn2C)n1 [Compound No. 2-105, N-(1-methyl-1H-tetrazol-5-yl)-2-((((2-methyl-2H-tetrazol-5-yl)methyl)sulfonyl)methyl)-6-(trifluoromethyl)nicotinamide]	–	100	–	–	60
Cn1nnnc1COc1nc(C(F)(F)F)ccc1C(=S)Nc1nnnn1C [Compound No. 1-43, N-(1-methyl-1H-tetrazol-5-yl)-2-((1-methyl-1H-tetrazol-5-yl)methoxy)-6-(trifluoromethyl)pyridin-3-carbothioamide]	0	100	–	–	–
COC(=O)OC(C)N(C(=O)c1ccc(C(F)(F)F)nc1COCc1nnn(C)n1)c1nnnn1C (stereo not shown) [Compound No. 4-4, methyl(1-(N-(1-methyl-1H-tetrazol-5-yl)-2-(((2-methyl-2H-tetrazol-5-yl)methoxy)methyl)-6-(trifluoromethyl)nicotinamido)ethyl)carbonate]	100	100	–	–	–
Cn1nnc(COCc2nc(C(F)F)ccc2C(=O)Nc2nnnn2C)n1 [Compound No. 2-84, 6-(difluoromethyl)-N-(1-methyl-1H-tetrazol-5-yl)-2-(((2-methyl-2H-tetrazol-5-yl)methoxy)methyl)nicotinamide]	100	100	–	–	–
Cn1nnc(COc2nc(C(F)(F)F)ccc2C(=O)Nc2nnnn2C)n1 [Compound No. 2-1, N-(1-methyl-1H-tetrazol-5-yl)-2-((2-methyl-2H-tetrazol-5-yl)methoxy)-6-(trifluoromethyl)nicotinamide]	–	100	–	–	90
Cn1nnc(COCc2nc(C(F)(F)F)ccc2C(=O)Nc2nnnn2C)n1 [Compound No. 2-59, N-(1-methyl-1H-tetrazol-5-yl)-2-(((2-methyl-2H-tetrazol-5-yl)methoxy)methyl)-6-(trifluoromethyl)nicotinamide]	100	100	–	–	–
